Experimental data reported in publication PMC7887271, “Fast acting allosteric phosphofructokinase inhibitors block trypanosome glycolysis and cure acute African trypanosomiasis in mice” (Nature Communications, 2021).
“And” between values parts separate entries of the source, which are not always exact repeats. Equal values may be shown once.

What was measured:
T. b. brucei GVR35-Luc2 = T. b. brucei GVR35-Luc2 time-to-kill assay (luciferin); type: cell-based; conditions: for Luminescence, Average / Luminescence, individual replicates: Time to kill assay for GVR35 cells
Protocol: Enzyme activity was measured using an aldolase/TIM linked assay at 25 °C. […] Experiments were carried out in duplicate. Data are presented as mean values ± standard deviation. […] Source data are provided as a Source Data File. b Kill time of CTCB-405 compared with existing HAT drugs in the clinic. […] Over 99% of trypanosomes were killed in under 30 min compared with much slower killing rates for the other drugs. The points on the graph for CTCB-405 were determined from two independent biological replicate experiments with each time point measured twice (using duplicate technical replicates). The ESD for each point on the graph is between 0.7 and 1.4%. For drugs in clinical use each point on the graph is the average of two technical replicates from one experiment (with a maximum difference of 7.8% for any of the points). Source data are provided as a Source Data File.
As predicted from the biology of the BSF that relies wholly on glycolysis for ATP production, inhibition of the pathway results in a very fast TTK. Two experimental methods were used to measure ATP levels as a real-time indicator of viability. For Tb427 parasites, a Cell Titre Glo kit was used and for the TbGVR35 bioluminescent strain, killing was assessed by adding luciferin which requires ATP to produce a luminescent signal (Supplementary Methods 4.3 and 4.4). […] The BSF of T. brucei cannot produce ATP by oxidative phosphorylation and is solely dependent on flux through the glycolytic pathway. The clear correlation between inhibitor dose and reduction in ATP production, as observed in the TTK assays strongly supports the proposed mode of action of the CTCB compounds is by blocking glycolysis. It is a long-established experimental observation that withdrawal of glucose nutrient leads to rapid loss of motility and cell death. It has recently been shown that the BSF of T. brucei can proliferate on high levels of glycerol; however, we have shown that addition of glycerol to the medium has little effect on parasite killing by the CTCB compounds (Supplementary Table 3).
The killing of T. b. brucei GVR35-Luc2 was assessed by adding D-luciferin to live cells resulting in the production of light in the presence of ATP and luciferase activity. Compounds of interest were serially diluted from 16 µM to 0.5 µM in Modified HMI-9 medium and added into sterile white, flat bottom 96-well plate (Greiner Inc.). 32,000 trypanosomes were added to each well. The plates were incubated at 37 °C and 5% CO2. At the end of each incubation, 200 µg/ml of D-luciferin was added to each well and incubated for 10 min. Luminescence was measured using a BMG plate reader and percentage cell viability versus incubation time was determined.

T. b. brucei Lister 427 = test: Wash-out studies, Lister 427; type: cell-based; conditions: concentrations greater than 2 to 4 µM, exposure longer than 4-6 hours, 3 days in drug free medium
Protocol: In order to estimate a killing-dose for in vivo trials, a series of washout experiments were carried out: parasites were incubated with a given concentration of compound before washing out the drug and determining whether the parasites were still viable and able to proliferate. […] The existence of a small population of parasites more resistant to the effects of the CTCB compounds might be explained by subpopulations of parasites being present at different stages of the cell cycle. The parasite cultures used in the killing experiments are not synchronised, and it is likely that ATP requirement varies depending on cell cycle phase and a subpopulation with lower ATP requirement may be less susceptible to the CTCB compounds, however, this phenomenon needs further investigation.
In vitro ‘wash-out’ studies were performed to determine the reversibility of the action of the CTCB compounds on trypanosomes, after a certain exposure time, and thus to assess whether the compounds have a trypanocidal or trypanostatic effect. These experiments were carried out with both the T. b. brucei Lister 427 and T. b. brucei GVR35-luc strains. […] The cell suspensions were then incubated under regular culture conditions for 3 days and parasite growth monitored daily by light microscopy. […]

[1] = Mouse hepatocytes intrinsic clearance; type: in vitro ADME
Source text: Methods are described in Supplementary Methods 5 and 6. Enzyme assay results are means ± SD in multiple assays. ADME results are averages of n = 2 or 3 measurements in individual assays.

T. b. gambiense = test: EC50 against in vitro cultured T. b. gambiense (STMI); type: cell-based; conditions: Trypanosoma brucei
T. b. rhodesiense = test: EC50 against in vitro cultured T. b. rhodesiense (STMI); type: cell-based; conditions: Trypanosoma brucei
T. b. brucei GVR35-luc = test: Wash-out studies, GVR35; type: cell-based; conditions: concentrations greater than 2 to 4 µM, exposure longer than 4-6 hours, 3 days in drug free medium
Protocol: In vitro ‘wash-out’ studies were performed to determine the reversibility of the action of the CTCB compounds on trypanosomes, after a certain exposure time, and thus to assess whether the compounds have a trypanocidal or trypanostatic effect. These experiments were carried out with both the T. b. brucei Lister 427 and T. b. brucei GVR35-luc strains. Trypanosomes at a density of 500,000 cells/ml in culture medium were incubated with CTCB compounds at varying concentrations in 12-well plates in volumes of 1 ml for different periods of time at 37°C. Subsequently, the cultures were centrifuged for 5 min at 2600 x g, the cells washed by re-suspending the pellets in 1 ml medium without inhibitors, centrifuged again and re-suspended in 1 ml fresh medium. The cell suspensions were then incubated under regular culture conditions for 3 days and parasite growth monitored daily by light microscopy.
The results for both strains are similar with no grow-back at concentrations of CTCB compounds greater than 2 to 4 µM with drug exposure longer than 4-6 hours.

[2] = GVR35 TTK, 24 h incubation, replicate wells

Compound: CNCCn1ccc2c(ccn2Cc2ccc(Cl)c(Cl)c2)c1=O [CTCB-435]
- % Cell viability, single replicates (T. b. brucei GVR35-Luc2; 0.5 h): 0.549% and -0.0671%
- % Inhibition, single replicates (T. b. brucei GVR35-Luc2; 0.5 h): 99% and 100%
- % Cell viability (T. b. brucei GVR35-Luc2; 0.5 h, average): 0.247% and 0.241%
- % Inhibition (T. b. brucei GVR35-Luc2; 0.5 h, mean, suramin, fexinidazole, SCYX-7158 11 µM, CTCB-405 4 µM): 100%
- % Cell viability, single replicates (T. b. brucei GVR35-Luc2; 1 h): -0.883% and -0.918%
- % Inhibition, single replicates (T. b. brucei GVR35-Luc2; 1 h): 101%
- % Inhibition (T. b. brucei GVR35-Luc2; 1 h, mean, suramin, fexinidazole, SCYX-7158 11 µM, CTCB-405 4 µM): 101%
- % Cell viability, single replicates (T. b. brucei GVR35-Luc2; 2 h): -0.287% and -0.261%
- % Inhibition, single replicates (T. b. brucei GVR35-Luc2; 2 h): 100%
- % Cell viability (T. b. brucei GVR35-Luc2; 2 h, average): -0.274%
- % Inhibition (T. b. brucei GVR35-Luc2; 2 h, mean, suramin, fexinidazole, SCYX-7158 11 µM, CTCB-405 4 µM): 100%
- % Cell viability, single replicates (T. b. brucei GVR35-Luc2; 4 h): -0.785% and -0.904%
- % Inhibition, single replicates (T. b. brucei GVR35-Luc2; 4 h): 101%
- % Cell viability (T. b. brucei GVR35-Luc2; 4 h, average): -0.843% and 0% and -0.844%
- % Inhibition (T. b. brucei GVR35-Luc2; 4 h, mean, suramin, fexinidazole, SCYX-7158 11 µM, CTCB-405 4 µM): 101%
- % Cell viability, single replicates (T. b. brucei GVR35-Luc2; 6 h): -0.726% and -0.643%
- % Inhibition, single replicates (T. b. brucei GVR35-Luc2; 6 h): 101%
- % Cell viability (T. b. brucei GVR35-Luc2; 6 h, average): -0.684%
- % Inhibition (T. b. brucei GVR35-Luc2; 6 h, mean, suramin, fexinidazole, SCYX-7158 11 µM, CTCB-405 4 µM): 101%
- % Cell viability, single replicates (T. b. brucei GVR35-Luc2; 8 h): -0.436% and -0.367%
- % Inhibition, single replicates (T. b. brucei GVR35-Luc2; 8 h): 100%
- % Cell viability (T. b. brucei GVR35-Luc2; 8 h, average): -0.401%
- % Inhibition (T. b. brucei GVR35-Luc2; 8 h, mean, suramin, fexinidazole, SCYX-7158 11 µM, CTCB-405 4 µM): 100%
- % Cell viability, Average (T. b. brucei GVR35-Luc2; GVR35 TTK, 24 h incubation, average): -0.136%
- Luminescence (medium-subtracted), Average (T. b. brucei GVR35-Luc2; GVR35 TTK, 24 h incubation, average of replicates): -47.5
- % Inhibition (T. b. brucei GVR35-Luc2; GVR35 TTK, 24 h incubation, from average): 100%
- % Cell viability, individual replicates (T. b. brucei GVR35-Luc2; [2]): -0.139% and -0.134%
- % Inhibition, individual replicates (T. b. brucei GVR35-Luc2; [2]): 100%
- Luminescence (medium-subtracted), individual replicates (T. b. brucei GVR35-Luc2; [2]): -66.5 and -28.5
- % Cell viability (T. b. brucei GVR35-Luc2; GVR35 TTK, 24 h sheet, summary line marked "4"): -0.137%
- Luminescence, Average (T. b. brucei GVR35-Luc2; 0.5 hour incubation): 71
- Luminescence, individual replicates (T. b. brucei GVR35-Luc2; 0.5 hour incubation): 100 and 43
- Luminescence, Average (T. b. brucei GVR35-Luc2; 1hour incubation): 2
- Luminescence, individual replicates (T. b. brucei GVR35-Luc2; 1hour incubation): 3 and 1
- Luminescence, Average (T. b. brucei GVR35-Luc2; 2hour incubation): 50
- Luminescence, individual replicates (T. b. brucei GVR35-Luc2; 2hour incubation): 49 and 50
- Luminescence, Average (T. b. brucei GVR35-Luc2; 4hour incubation): -42
- Luminescence, individual replicates (T. b. brucei GVR35-Luc2; 4hour incubation): -34 and -51
- Luminescence, Average (T. b. brucei GVR35-Luc2; 6hour incubation): -65
- Luminescence, individual replicates (T. b. brucei GVR35-Luc2; 6hour incubation): -78 and -51
- Luminescence, Average (T. b. brucei GVR35-Luc2; 8hour incubation): -1.5
- Luminescence, individual replicates (T. b. brucei GVR35-Luc2; 8hour incubation): -12 and 9
- Luminescence, Average (T. b. brucei GVR35-Luc2; 24hour incubation): -48
- Luminescence, individual replicates (T. b. brucei GVR35-Luc2; 24hour incubation): -67 and -29

Compound: CN(C)CCn1ccc2c(ccn2Cc2ccc(Cl)c(Br)c2)c1=O [CTCB-470, 1-[(3-Bromo-4-chlorophenyl)methyl]-5-[2-(dimethylamino)ethyl] pyrrolo[3,2-c]pyridin-4-one]
- wash-out: grow-back after removal of drug (T. b. brucei Lister 427): no grow-back
- Mouse hepatocytes Clint [1]: 3.6 µL min^−1 per 10^6 cells
- EC50 (T. b. gambiense): 140 nM
- EC50 (T. b. rhodesiense): 280 nM
- wash-out: grow-back after removal of drug (T. b. brucei GVR35-luc): no grow-back
